Experimental data published in the NIST ThermoML archive (doi:10.1021/je700055p).

Assay: relative permittivity at various frequencies (dimensionless)
Details: 101.3 kPa, Liquid, Frequency=1 MHz, Coaxial cylinder capacitor

CC#N [acetonitrile]
Details	relative permittivity
288.15 K	37.52
293.15 K	36.62
298.15 K	35.88
303.15 K	35.15
308.15 K	34.45
313.15 K	33.75
318.15 K	33.01
323.15 K	32.36
328.15 K	31.62
333.15 K	31.05
